Measured values taken from publication PMC11995724, “Antibiotic target discovery by integrated phenotypic and activity-based profiling of electrophilic fragments” (Cell chemical biology, 2025).
Counter-ions that a name gives are not always drawn.

Assay: in vitro
Details: human, hek293t cells

SMILES: N#CC(=Cc1cc(F)ccc1F)C(=O)NC1CCCC1 [8-I12, 2-cyano-N-cyclopentyl-3-(2,5-difluorophenyl)prop-2-enamide]
- viability at 48 h, 25 µM: 16.8%

SMILES: COc1cccc(NC(=O)C(C#N)=Cc2cccc(Cl)c2Cl)c1 [8-F06, 2-cyano-3-(2,3-dichlorophenyl)-N-(3-methoxyphenyl)prop-2-enamide]
- viability at 48 h, 25 µM: 29.8%

SMILES: COc1cccc2cc(C=C(C#N)C(=O)Nc3ccc(C)cc3)oc12 [9-A17, 2-cyano-3-(7-methoxy-1-benzofuran-2-yl)-N-(4-methylphenyl)prop-2-enamide]
- viability at 48 h, 25 µM: 89%

SMILES: CCc1nsc(N2CCN(C(=O)C(C#N)=Cc3ccco3)CC2)n1 [9-K05, 2-[4-(3-ethyl-1,2,4-thiadiazol-5-yl)piperazine-1-carbonyl]-3-(furan-2-yl)prop-2-enenitrile]
- viability at 48 h, 25 µM: 121%

SMILES: O=C(CCl)NC(c1ccccc1)c1ccco1 (stereo not drawn) [4-A08, 2-chloro-N-[(furan-2-yl)(phenyl)methyl]acetamide]
- viability at 48 h, 25 µM: 2.75%

SMILES: CC(Cl)C(=O)NCCS(=O)(=O)Nc1ccccn1 (stereo not drawn) [7-L05, 2-chloro-N-{2-[(pyridin-2-yl)sulfamoyl]ethyl}propanamide]
- viability at 48 h, 25 µM: 103%

SMILES: O=C(CCl)Nc1ccc(Cl)cc1[N+](=O)[O-] [5-N08, 2-chloro-N-(4-chloro-2-nitrophenyl)acetamide]
- viability at 48 h, 25 µM: 76.9%

SMILES: Cc1nnc(C(C)NC(=O)C(C)Cl)s1 (stereo not drawn) [7-D11, 2-chloro-N-[1-(5-methyl-1,3,4-thiadiazol-2-yl)ethyl]propanamide]
- viability at 48 h, 25 µM: 104%

SMILES: CC(Cl)C(=O)NC1CCCCC1n1cccn1 (stereo not drawn) [7-F17, 2-chloro-N-[2-(1H-pyrazol-1-yl)cyclohexyl]propanamide]
- viability at 48 h, 25 µM: 97.9%

SMILES: C=CC(=O)N(Cc1cnc(C2CC2)o1)C1CCCCC1C (stereo not drawn) [1-D15, N-[(2-cyclopropyl-1,3-oxazol-5-yl)methyl]-N-(2-methylcyclohexyl)prop-2-enamide]
- viability at 48 h, 25 µM: 118%

SMILES: CC(c1ccc(C(F)(F)F)c(Cl)c1)N(C)C(=O)CCl (stereo not drawn) [7-F14, 2-chloro-N-{1-[3-chloro-4-(trifluoromethyl)phenyl]ethyl}-N-methylacetamide]
- viability at 48 h, 25 µM: 0.626%

SMILES: C=CC(=O)NCc1cn(C(F)F)c2ccccc12 [2-F11, N-{[1-(difluoromethyl)-1H-indol-3-yl]methyl}prop-2-enamide]
- viability at 48 h, 25 µM: 49%

SMILES: O=C(CCl)N1CCN(C2CCCN(C3CCOCC3)C2=O)CC1 (stereo not drawn) [5-E18, 3-[4-(2-chloroacetyl)piperazin-1-yl]-1-(oxan-4-yl)piperidin-2-one]
- viability at 48 h, 25 µM: 9.07%

SMILES: C=CC(=O)N(C)Cc1ccncc1 [1-N21, N-methyl-N-[(pyridin-4-yl)methyl]prop-2-enamide]
- viability at 48 h, 25 µM: 135%

SMILES: CCOc1ccc(C=C(C#N)C(=O)Nc2cccc3ncccc23)cc1 [8-A07, 2-cyano-3-(4-ethoxyphenyl)-N-(quinolin-5-yl)prop-2-enamide]
- viability at 48 h, 25 µM: 60.7%

SMILES: COc1ccc(C(NC(=O)CCl)C2CC2)cc1 (stereo not drawn) [4-K19, 2-chloro-N-[cyclopropyl(4-methoxyphenyl)methyl]acetamide]
- viability at 48 h, 25 µM: 2.83%

SMILES: CC1CC(NC(=O)CCl)C(=O)N1c1cnn(C)c1 (stereo not drawn) [5-O08, 2-chloro-N-[5-methyl-1-(1-methyl-1H-pyrazol-4-yl)-2-oxopyrrolidin-3-yl]acetamide]
- viability at 48 h, 25 µM: 100%

SMILES: CC(Cl)C(=O)N(C)Cc1ccccc1 (stereo not drawn) [6-I13, N-benzyl-2-chloro-N-methylpropanamide]
- viability at 48 h, 25 µM: 105%

SMILES: N#CC(=Cc1ccc(N2CCCCCC2)cc1)C(=O)NCC1CCCO1 (stereo not drawn) [9-H15, 3-[4-(azepan-1-yl)phenyl]-2-cyano-N-[(oxolan-2-yl)methyl]prop-2-enamide]
- viability at 48 h, 25 µM: 71.9%

SMILES: C=CC(=O)NCCc1csc(-c2ccccc2)n1 [1-A13, N-[2-(2-phenyl-1,3-thiazol-4-yl)ethyl]prop-2-enamide]
- viability at 48 h, 25 µM: 88.5%

SMILES: O=C(CCl)N(Cc1ccco1)C12CC3CC(CC(C3)C1)C2 [4-J18, N-(adamantan-1-yl)-2-chloro-N-[(furan-2-yl)methyl]acetamide]
- viability at 48 h, 25 µM: 1.5%

SMILES: Cc1cc(C(=O)C(C)Cl)c(C)n1-c1ccc(OC(F)F)cc1 (stereo not drawn) [10-E10, 2-chloro-1-{1-[4-(difluoromethoxy)phenyl]-2,5-dimethyl-1H-pyrrol-3-yl}propan-1-one]
- viability at 48 h, 25 µM: 84.6%

SMILES: C=CC(=O)NCC1CCCCN1S(C)(=O)=O (stereo not drawn) [1-D17, N-[(1-methanesulfonylpiperidin-2-yl)methyl]prop-2-enamide]
- viability at 48 h, 25 µM: 161%

SMILES: O=C(CCl)NCc1coc(Cl)n1 [6-B04, 2-chloro-N-[(2-chloro-1,3-oxazol-4-yl)methyl]acetamide]
- viability at 48 h, 25 µM: 106%

SMILES: C=CC(=O)NCCc1nc(-c2ccccc2)nn1C [2-M12, N-[2-(1-methyl-3-phenyl-1H-1,2,4-triazol-5-yl)ethyl]prop-2-enamide]
- viability at 48 h, 25 µM: 87.7%

SMILES: C=CC(=O)N1CCN(Cc2ncon2)CC1 [3-I16, 1-{4-[(1,2,4-oxadiazol-3-yl)methyl]piperazin-1-yl}prop-2-en-1-one]
- viability at 48 h, 25 µM: 106%

SMILES: C=CC(=O)N1CCC(C(=O)N2CCC(C(=O)NC3CC3)CC2)CC1 [2-D10, N-cyclopropyl-1-[1-(prop-2-enoyl)piperidine-4-carbonyl]piperidine-4-carboxamide]
- viability at 48 h, 25 µM: 76.9%

SMILES: CCCCNC(=O)C(C#N)=Cc1cccc(Cl)c1Cl [9-H11, N-butyl-2-cyano-3-(2,3-dichlorophenyl)prop-2-enamide]
- viability at 48 h, 25 µM: 24.1%

SMILES: C=CC(=O)NCc1nnc(COC)[nH]1 [3-F10, N-{[5-(methoxymethyl)-4H-1,2,4-triazol-3-yl]methyl}prop-2-enamide]
- viability at 48 h, 25 µM: 102%

SMILES: CC(Cl)C(=O)Nc1ccc(C(=O)N(C)C2CCCN(C)C2)cc1 (stereo not drawn) [7-I20, 4-(2-chloropropanamido)-N-methyl-N-(1-methylpiperidin-3-yl)benzamide]
- viability at 48 h, 25 µM: 76.4%

SMILES: CC(Cl)C(=O)Nc1ccc(OC(F)F)c(Cl)c1 (stereo not drawn) [4-F18, 2-chloro-N-[3-chloro-4-(difluoromethoxy)phenyl]propanamide]
- viability at 48 h, 25 µM: 91.5%

SMILES: CS(=O)(=O)NCCc1ccc(C(=O)CCl)cc1 [10-D06, N-{2-[4-(2-chloroacetyl)phenyl]ethyl}methanesulfonamide]
- viability at 48 h, 25 µM: 18.3%

SMILES: O=C(CCl)Nc1ccc(Oc2ccccc2)cc1 [4-J09, 2-chloro-N-(4-phenoxyphenyl)acetamide]
- viability at 48 h, 25 µM: -0.178%

SMILES: Cc1ccc(S(=O)(=O)N2CCSSCC2)c(F)c1 [10-L09, 5-(2-fluoro-4-methylbenzenesulfonyl)-1,2,5-dithiazepane]
- viability at 48 h, 25 µM: 92.2%

SMILES: C=CC(=O)N1CCc2nn(C(C)C)c(=O)cc2C1 [3-B22, 6-(prop-2-enoyl)-2-(propan-2-yl)-2H,3H,5H,6H,7H,8H-pyrido[4,3-c]pyridazin-3-one]
- viability at 48 h, 25 µM: 87.7%

SMILES: CC1Cc2cc(C(=O)CCl)ccc2N1S(C)(=O)=O (stereo not drawn) [10-A04, 2-chloro-1-(1-methanesulfonyl-2-methyl-2,3-dihydro-1H-indol-5-yl)ethan-1-one]
- viability at 48 h, 25 µM: 0.28%

SMILES: Cc1ccc(C(CNC(=O)C(C)Cl)N2CCOCC2)s1 (stereo not drawn) [7-N13, 2-chloro-N-[2-(5-methylthiophen-2-yl)-2-(morpholin-4-yl)ethyl]propanamide]
- viability at 48 h, 25 µM: 108%

SMILES: O=C(CCl)c1ccc2c(c1)-c1ccccc1C2 [10-H17, 2-chloro-1-(9H-fluoren-3-yl)ethan-1-one]
- viability at 48 h, 25 µM: 51.2%

SMILES: CC(Cl)C(=O)Nc1ccc(N(C)C)cc1 (stereo not drawn) [5-N04, 2-chloro-N-[4-(dimethylamino)phenyl]propanamide hydrochloride]
- viability at 48 h, 25 µM: 99.3%

SMILES: C=CC(=O)N1CCC(C(=O)Nc2nc3cc(F)ccc3n2CC)CC1 [3-I13, N-(1-ethyl-5-fluoro-1H-1,3-benzodiazol-2-yl)-1-(prop-2-enoyl)piperidine-4-carboxamide]
- viability at 48 h, 25 µM: 62.5%

SMILES: O=C(CCl)Cc1ccc(F)cc1F [10-G17, 1-chloro-3-(2,4-difluorophenyl)propan-2-one]
- viability at 48 h, 25 µM: 36.8%

SMILES: C=CC(=O)N1CCC(n2cc(C(N)=O)nn2)C1 (stereo not drawn) [1-C18, 1-[1-(prop-2-enoyl)pyrrolidin-3-yl]-1H-1,2,3-triazole-4-carboxamide]
- viability at 48 h, 25 µM: 79.6%

SMILES: CC(Cl)C(=O)Nc1sccc1C(N)=O (stereo not drawn) [5-C21, 2-(2-chloropropanamido)thiophene-3-carboxamide]
- viability at 48 h, 25 µM: 85.4%

SMILES: O=C(Nc1nccs1)N1CCSSCC1 [10-O22, N-(1,3-thiazol-2-yl)-1,2,5-dithiazepane-5-carboxamide]
- viability at 48 h, 25 µM: 113%

SMILES: COc1ccc(NC(=O)C(C#N)=Cc2c(C)n[nH]c2C)cc1 [8-I04, 2-cyano-3-(3,5-dimethyl-1H-pyrazol-4-yl)-N-(4-methoxyphenyl)prop-2-enamide]
- viability at 48 h, 25 µM: 84.7%

SMILES: C=CC(=O)NCc1ccccc1S(=O)(=O)N1CCOCC1 [3-H22, N-{[2-(morpholine-4-sulfonyl)phenyl]methyl}prop-2-enamide]
- viability at 48 h, 25 µM: 89.1%

SMILES: Cc1cc(C)c(NC(=O)C(C#N)=Cc2ccccc2)c(C)c1 [8-E19, 2-cyano-3-phenyl-N-(2,4,6-trimethylphenyl)prop-2-enamide]
- viability at 48 h, 25 µM: 29.4%

SMILES: N#CC(=Cc1ccc(Cl)cc1)C(=O)Nc1ccccn1 [9-H16, 3-(4-chlorophenyl)-2-cyano-N-(pyridin-2-yl)prop-2-enamide]
- viability at 48 h, 25 µM: 128%

SMILES: CCOc1cc(C=C(C#N)C(=O)Nc2nccs2)cc(Cl)c1O [9-K22, 3-(3-chloro-5-ethoxy-4-hydroxyphenyl)-2-cyano-N-(1,3-thiazol-2-yl)prop-2-enamide]
- viability at 48 h, 25 µM: 110%

SMILES: CC(Cl)C(=O)NC1COCc2ccccc21 (stereo not drawn) [6-B05, 2-chloro-N-(3,4-dihydro-1H-2-benzopyran-4-yl)propanamide]
- viability at 48 h, 25 µM: 106%

SMILES: CN(CCOc1ccccc1F)C(=O)CCl [6-C03, 2-chloro-N-[2-(2-fluorophenoxy)ethyl]-N-methylacetamide]
- viability at 48 h, 25 µM: 1.83%

SMILES: Cc1cccc(NC(=O)C(C#N)=Cc2ccc(F)cc2)c1 [9-E12, 2-cyano-3-(4-fluorophenyl)-N-(3-methylphenyl)prop-2-enamide]
- viability at 48 h, 25 µM: 90.9%

SMILES: N#CC(=Cc1ccccc1OCc1ccccc1)C(=O)NC(N)=O [8-F05, (2-{[2-(benzyloxy)phenyl]methylidene}-2-cyanoacetyl)urea]
- viability at 48 h, 25 µM: 84.9%

SMILES: O=C(CCl)NC(CC1CC1)c1ccc(Cl)cn1 (stereo not drawn) [6-F19, 2-chloro-N-[1-(5-chloropyridin-2-yl)-2-cyclopropylethyl]acetamide]
- viability at 48 h, 25 µM: 1.46%
